Laboratory results: ChEMBL document CHEMBL1153550, “In vitro study of Candida tropicalis isolates exhibiting paradoxical growth in the presence of high concentrations of caspofungin” (2007)
Converted amounts (≈) assume the structure as drawn. The source made the active and inactive calls. No cut-off for these calls is given here.

Tests used:
Candida tropicalis [1] = assay: Antifungal activity against 10^5 CFU/ml Candida tropicalis isolate 8 in RPMI 1640 medium at =< 0.09 ug/ml after 24 hrs followed by incubation in drug free medium for 48 hrs by broth microdilution method; type: functional, organism-based
Candida tropicalis [2] = assay: Antifungal activity against 2 x 10^7 CFU/ml Candida tropicalis isolate 10 in antibiotic medium 3 after 24 hrs by broth microdilution method; type: functional; conditions: isolate 10, 24 h
Candida tropicalis [3] = assay: Antifungal activity against > 2 x 10^7 CFU/ml Candida tropicalis isolate 2 in antibiotic medium 3 assessed as partial growth after 24 hrs by broth microdilution method; type: functional, organism-based
Candida tropicalis [4] = assay: Antifungal activity against 10^5 CFU/ml Candida tropicalis ATCC 750 in RPMI 1640 medium at 0.4 to 12.5 ug/ml treated for 24 hrs followed by incubation in drug free medium for 48 hrs by broth microdilution method; type: functional, organism-based
Candida tropicalis [5] = assay: Antifungal activity against 10^5 CFU/ml Candida tropicalis isolate 1 in RPMI 1640 medium at 12.5 ug/ml treated for 48 hrs followed by incubation in drug free medium for 48 hrs by broth microdilution method; type: functional, organism-based
Candida tropicalis [6] = assay: Antifungal activity against 10^5 CFU/ml Candida tropicalis isolate 11 in RPMI 1640 medium at 12.5 ug/ml treated for 48 hrs followed by incubation in drug free medium for 48 hrs by broth microdilution method; type: functional, organism-based
Candida tropicalis [7] = assay: Antifungal activity against 10^5 CFU/ml Candida tropicalis isolate 14 in RPMI 1640 medium at 12.5 ug/ml treated for 24 hrs followed by incubation in drug free medium for 48 hrs by broth microdilution method; type: functional, organism-based
Candida tropicalis [8] = assay: Antifungal activity against Candida tropicalis ATCC 750 in RPMI 1640 medium assessed as paradoxical growth at 12.5 ug/ml after 24 hrs by broth microdilution method; type: functional, organism-based
Candida tropicalis [9] = assay: Antifungal activity against 10^5 CFU/ml Candida tropicalis isolate 3 in RPMI 1640 medium at 12.5 ug/ml treated for 48 hrs followed by incubation in drug free medium for 48 hrs by broth microdilution method; type: functional, organism-based
Candida tropicalis [10] = assay: Antifungal activity against 10^5 CFU/ml Candida tropicalis isolate 14 in RPMI 1640 medium at =< 0.09 ug/ml after 24 hrs followed by incubation in drug free medium for 48 hrs by broth microdilution method; type: functional, organism-based
Candida tropicalis [11] = assay: Antifungal activity against > 2 x 10^7 CFU/ml Candida tropicalis ATCC 750 in antibiotic medium 3 assessed as partial growth after 24 hrs by broth microdilution method; type: functional, organism-based
Candida tropicalis [12] = assay: Antifungal activity against 2 x 10^7 CFU/ml Candida tropicalis isolate 2 in RPMI 1640 medium after 24 hrs by broth microdilution method; type: functional; conditions: isolate 2, 24 h
Candida tropicalis [13] = assay: Antifungal activity against Candida tropicalis clinical isolate in antibiotic medium 3 assessed as paradoxical growth-related change in CFU treated for 24 hrs by time-kill assay; type: functional
Candida tropicalis [14] = assay: Antifungal activity against Candida tropicalis isolate 8 in RPMI 1640 medium assessed as paradoxical growth at 12.5 ug/ml after 24 hrs by broth microdilution method; type: functional, organism-based
Candida tropicalis [15] = assay: Antifungal activity against > 2 x 10^7 CFU/ml Candida tropicalis isolate 5 in RPMI 1640 medium assessed as partial growth after 24 hrs by broth microdilution method; type: functional, organism-based
Candida tropicalis [16] = assay: Antifungal activity against 10^5 CFU/ml Candida tropicalis isolate 6 in antibiotic medium 3 at 6.25 ug/ml treated for 24 hrs followed by incubation in drug free medium for 48 hrs by broth microdilution method; type: functional, organism-based
Candida tropicalis [17] = assay: Fungicidal activity against Candida tropicalis isolate 15 at =< 3.12 ug/ml after 24 to 48 hrs by time-kill assay; type: functional, organism-based
Candida tropicalis [18] = assay: Antifungal activity against 10^5 CFU/ml Candida tropicalis isolate 5 in RPMI 1640 medium at =< 0.09 ug/ml after 24 hrs followed by incubation in drug free medium for 48 hrs by broth microdilution method; type: functional, organism-based
Candida tropicalis [19] = assay: Antifungal activity against 2 x 10^7 CFU/ml Candida tropicalis isolate 9 in RPMI 1640 medium after 24 hrs by broth microdilution method; type: functional; conditions: isolate 9, 24 h
Candida tropicalis [20] = assay: Antifungal activity against Candida tropicalis ATCC 750 in RPMI 1640 medium assessed as paradoxical growth at 12.5 ug/ml after 48 hrs by broth microdilution method; type: functional, organism-based
Candida tropicalis [21] = assay: Antifungal activity against 10^5 CFU/ml Candida tropicalis clinical isolate in RPMI 1640 medium treated for 24 hrs followed by incubation in drug free medium for 48 hrs by broth microdilution method; type: functional, organism-based
Candida tropicalis [22] = assay: Antifungal activity against 10^5 CFU/ml Candida tropicalis isolate 2 in RPMI 1640 medium at 12.5 ug/ml treated for 48 hrs followed by incubation in drug free medium for 48 hrs by broth microdilution method; type: functional, organism-based
Candida tropicalis [23] = assay: Antifungal activity against 10^5 CFU/ml Candida tropicalis isolate 12 in RPMI 1640 medium at 12.5 ug/ml treated for 48 hrs followed by incubation in drug free medium for 48 hrs by broth microdilution method; type: functional, organism-based
Candida tropicalis [24] = assay: Antifungal activity against Candida tropicalis isolate 15 in RPMI 1640 medium assessed as paradoxical growth at 12.5 ug/ml after 24 hrs by broth microdilution method; type: functional, organism-based
Candida tropicalis [25] = assay: Antifungal activity against Candida tropicalis isolate 4 in RPMI 1640 medium assessed as paradoxical growth at 12.5 ug/ml after 48 hrs by broth microdilution method; type: functional, organism-based
Candida tropicalis [26] = assay: Antifungal activity against Candida tropicalis isolate 7 in RPMI 1640 medium assessed as paradoxical growth at 12.5 ug/ml after 24 hrs by broth microdilution method; type: functional, organism-based
Candida tropicalis [27] = assay: Antifungal activity against 2 x 10^7 CFU/ml Candida tropicalis isolate 11 in antibiotic medium 3 after 24 hrs by broth microdilution method; type: functional; conditions: isolate 11, 24 h
Candida tropicalis [28] = assay: Antifungal activity against Candida tropicalis isolate 5 in RPMI 1640 medium assessed as paradoxical growth at 6.25 ug/ml after 48 hrs by broth microdilution method; type: functional, organism-based
Candida tropicalis [29] = assay: Antifungal activity against 2 x 10^7 CFU/ml Candida tropicalis isolate 5 in RPMI 1640 medium after 24 hrs by broth microdilution method; type: functional; conditions: isolate 5, 24 h
Candida tropicalis [30] = assay: Antifungal activity against > 2 x 10^7 CFU/ml Candida tropicalis isolate 10 in antibiotic medium 3 assessed as partial growth after 24 hrs by broth microdilution method; type: functional, organism-based
Candida tropicalis [31] = assay: Antifungal activity against > 2 x 10^7 CFU/ml Candida tropicalis isolate 9 in antibiotic medium 3 assessed as partial growth after 24 hrs by broth microdilution method; type: functional, organism-based
Candida tropicalis [32] = assay: Antifungal activity against Candida tropicalis isolate 4 in RPMI 1640 medium assessed as paradoxical growth at 12.5 ug/ml after 24 hrs by broth microdilution method; type: functional, organism-based
Candida tropicalis [33] = assay: Antifungal activity against > 2 x 10^7 CFU/ml Candida tropicalis isolate 6 in antibiotic medium 3 assessed as paradoxical growth after 24 hrs by broth microdilution method; type: functional, organism-based
Candida tropicalis [34] = assay: Antifungal activity against 2 x 10^7 CFU/ml Candida tropicalis isolate 8 in antibiotic medium 3 after 24 hrs by broth microdilution method; type: functional; conditions: isolate 8, 24 h
Candida tropicalis [35] = assay: Antifungal activity against > 2 x 10^7 CFU/ml Candida tropicalis isolate 5 in antibiotic medium 3 assessed as partial growth after 24 hrs by broth microdilution method; type: functional, organism-based

SMILES: CC[C@H](C)C[C@H](C)CCCCCCCCC(=O)N[C@H]1C[C@@H](O)[C@@H](NCCN)NC(=O)[C@@H]2[C@@H](O)CCN2C(=O)[C@H]([C@H](O)CCN)NC(=O)[C@H]([C@H](O)[C@@H](O)c2ccc(O)cc2)NC(=O)[C@@H]2C[C@@H](O)CN2C(=O)[C@H]([C@@H](C)O)NC1=O [CASPOFUNGIN]
- Activity (Candida tropicalis [1]): Active
- MIC (Candida tropicalis [2]): 0.024 mg/L (≈ 0.022 µM)
- Activity (Candida tropicalis [3]): inactive
- Activity (Candida tropicalis [4]): inactive
- Activity (Candida tropicalis [5]): inactive
- Activity (Candida tropicalis [6]): inactive
- Activity (Candida tropicalis [7]): inactive
- Activity (Candida tropicalis [8]): inactive
- Activity (Candida tropicalis [9]): inactive
- Activity (Candida tropicalis [10]): Active
- Activity (Candida tropicalis [11]): inactive
- MIC (Candida tropicalis [12]): 0.024 mg/L (≈ 0.022 µM)
- Activity (Candida tropicalis [13]): 0.36 log10CFU/ml
- Activity (Candida tropicalis [14]): inactive
- Activity (Candida tropicalis [15]): inactive
- Activity (Candida tropicalis [16]): inactive
- Activity (Candida tropicalis [17]): Active
- Activity (Candida tropicalis [18]): Active
- MIC (Candida tropicalis [19]): 0.024 mg/L (≈ 0.022 µM)
- Activity (Candida tropicalis [20]): Active
- Activity (Candida tropicalis [21]): Active
- Activity (Candida tropicalis [22]): inactive
- Activity (Candida tropicalis [23]): inactive
- Activity (Candida tropicalis [24]): inactive
- Activity (Candida tropicalis [25]): inactive
- Activity (Candida tropicalis [26]): Active
- MIC (Candida tropicalis [27]): 0.024 mg/L (≈ 0.022 µM)
- Activity (Candida tropicalis [28]): inactive
- MIC (Candida tropicalis [29]): 0.024 mg/L (≈ 0.022 µM)
- Activity (Candida tropicalis [30]): inactive
- Activity (Candida tropicalis [31]): inactive
- Activity (Candida tropicalis [32]): inactive
- Activity (Candida tropicalis [33]): inactive
- MIC (Candida tropicalis [34]): 0.024 mg/L (≈ 0.022 µM)
- Activity (Candida tropicalis [35]): inactive
